Measurements taken from patent publication US6610702B2, “Ammonium salts of inositol hexaphosphate, and uses thereof” (GMP Oxycell, Inc., priority 2000, dated 2003).
Where a name gives a salt, the structure may show the parent alone. Read-outs that look alike come from different tables or passages of the source. Values belong to the molecule of their own block, whether it stands above or below them.

Tests used:
red blood cells = assay: hemolysis of red blood cells on incubation of whole blood with effector; type: cell-based
Experimental: (§1) Washes: After incubation of whole blood with/without effector, blood cells were washed four times with Saline buffer or HBS (BSA) by centrifugal pelleting to remove exogenous effector and to evaluate hemolysis. After final centrifugation, pellet was not resuspended.

whole blood [1] = assay: P50 of whole blood pre-incubated with effector (Hemox Analyzer); type: cell-based
Experimental: Whole blood was collected from one subject. The blood was stored in a Vacutainer with Solution A (ACD) and stored at 4-8° C.
Preparation of Effector Stock: Effector stock was prepared at 100-120 mM (Molal solution) using water or Bis-Tris Buffer. Effector characteristics prior to incubation were:
Incubation: Whole blood (75-300 μL) was incubated with 200 μL of effector at 37° C. for 5-10 min. (see Summary of Results below).
as §1
Blood Oxygen Dissociation Reading: Blood Oxygen Dissociation of samples were determined using a Hemox Analizer Model B (TCS Medical Products Company, New Hope, Pa.). The sample chamger contained:
10-20 μL Pelleted Blood Cells incubated with Effector
All readings were made at 36.7-37.2° C. and at pH 7.28-7.32. The P50s were calculated from the Dissociation Curves compared to same day control P50.

Free Hemoglobin = Free Hemoglobin (Homo sapiens, UniProt P68871); assay: P50 of free hemoglobin in the presence of effector; type: biochemical; conditions: fHb
[2] = 1-octanol/aqueous phase partition coefficients of IHP salts measured by 31P-NMR; type: physicochemical
Source text: Partition coefficients measurements. We synthesized a first series of IHP derivatives, ionically associated to different aliphatic and aromatic amines as well as amino-esters. Taking advantage of the 6 phosphate groups present in the IHP molecule, we measured, by ^31P-NMR, the partition coefficients of IHP salts between a 1-octanol phase and two different aqueous phases: water and human serum. In FIG. 11 are represented the structures of the different amines preassociated to IHP and the corresponding partition coefficients Kow and Kos. These coefficients are measured after equilibration, at a concentration of 30 mM, close to the typical concentration employed for the biological evaluations (the standard concentration used for O2-dissociation curve measurements is 22 mM).
Choice of the aqueous phases. […] To be even closer to physiological conditions, we pushed this investigation further by measuring 1-octanol/human serum partition coefficients Kos. […] Therefore, we only measured Kos's when Kow values were significant. To illustrate this observation we compared the partitions of 2 IHP derivatives, SV75 and SV131, in different aqueous systems: water, artificial serum (for its composition, see the Experimental section) without and with albumin, and human serum.
Human serum was purchased at the “Centre de Transfusion Sanguine de Strasbourg”. Artificial serum was based on blood composition : [Na^+]=140 mM, [Mg^2+]=1 mM, [K^+]=5 mM, [Ca^2+]=1 mM, [Cl^−]=106 mM, [PO4^3−]=1 mM, [SO4^2−]=0.5 mM, [CO3^2−]=30 mM, [Br^−]=0.5 mM, bovine serum albumin (fraction V, >98%) 30 g.l^−1, pH=7.41.
Partition coefficients. […] 1 ml of 1-octanol was then added and each sample was shaken at 36 rpm during 12 hours. The equilibrated biphasic solutions were centrifuged for 2 hours at 3000 rpm. 350 μl of the octanolic phase was first taken off with a syringe and put directly in the NMR tube. 350 μl of the aqueous phase was then taken off. ^31P-NMR spectra were performed on a Bruker AC-300 apparatus. An external standard (triphenylphosphine oxide, 60 mM in d6-DMSO) was placed inside the NMR tubes to allow both the locking process of the apparatus and an accurate integration of IHP peaks. Partition coefficients were determined as the ratio of IHP integrations, relative to the external standard, in the octanol and aqueous phases.

whole blood [3] = assay: P50 shift on whole blood, first library (Hb-O2 dissociation curve); type: cell-based; conditions: 220 mOsM, control IHP sodium form, 37° C.
Experimental: In FIG. 14 the different IHP derivatives have been classified by amine types, the number of cations per IHP molecule as well as the reference number are indicated beside each amine drawings. The P50 shift values have to be compared to the control experiment (underlined), corresponding to a test performed in the same conditions but with IHP, sodium form. P50 values have been measured in Professor Nicolau's laboratory in Boston (bioassay conditions: 75 μl of whole blood was incubated 2 minutes with 300 μl of a 50 mM solution of IHP derivatives. The system was then washed and 20 μl were used for measurement of the Hb-O2 dissociation curve at 37° C.). See also FIGS. 15-17 for tables of P50 values at various osmolarities of whole blood, and free hemoglobin that has been pre-incubated with various ammonium salts of inositol hexaphosphate.

stripped hemoglobin = stripped hemoglobin (Homo sapiens, UniProt P68871); conditions: pH 7.4, cited from earlier work
[4] = 0.25 umoles EFF, control P50 16 mmHg, 37° C.
[5] = 1-octanol/water, concentration of 30 mM

Sequence of Free Hemoglobin (P68871 2-147 limits assumed): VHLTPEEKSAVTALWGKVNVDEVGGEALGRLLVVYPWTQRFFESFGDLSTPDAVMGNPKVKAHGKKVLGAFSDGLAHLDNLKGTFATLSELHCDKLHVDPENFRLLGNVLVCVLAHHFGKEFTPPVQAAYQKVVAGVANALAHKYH
Sequence of Free Hemoglobin (P69905 2-142 partner limits assumed): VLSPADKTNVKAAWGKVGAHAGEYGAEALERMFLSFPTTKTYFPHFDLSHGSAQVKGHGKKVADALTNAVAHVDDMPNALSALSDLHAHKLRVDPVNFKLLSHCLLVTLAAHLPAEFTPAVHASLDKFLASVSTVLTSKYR
Sequence of stripped hemoglobin (P68871 2-147 limits assumed): as the sequence (P68871 2-147 limits assumed) above
Sequence of stripped hemoglobin (P69905 2-142 partner limits assumed): as the sequence (P69905 2-142 partner limits assumed) above

Molecule: CCC(C)C(N)C(=O)OC(C)(C)C.CCC(C)C(N)C(=O)OC(C)(C)C.CCC(C)C(N)C(=O)OC(C)(C)C.CCC(C)C(N)C(=O)OC(C)(C)C.CCC(C)C(N)C(=O)OC(C)(C)C.CCC(C)C(N)C(=O)OC(C)(C)C.CCC(C)C(N)C(=O)OC(C)(C)C.CCC(C)C(N)C(=O)OC(C)(C)C.O=P(O)(O)OC1C(OP(=O)(O)O)C(OP(=O)(O)O)C(OP(=O)(O)O)C(OP(=O)(O)O)C1OP(=O)(O)O (stereo not shown) [SV57, Inositol hexaphosphate, octa isoleucine-tbuthyl-ester]
hemolysis of red blood cells (red blood cells; first library bioassay on whole blood): fast hemolysis

Molecule: C1CCC(NCCN(CCNC2CCCCC2)CCNC2CCCCC2)CC1.C1CCC(NCCN(CCNC2CCCCC2)CCNC2CCCCC2)CC1.C1CCC(NCCN(CCNC2CCCCC2)CCNC2CCCCC2)CC1.O=P(O)(O)O[C@H]1[C@H](OP(=O)(O)O)[C@@H](OP(=O)(O)O)[C@H](OP(=O)(O)O)[C@@H](OP(=O)(O)O)[C@H]1OP(=O)(O)O [SV102, Inositol hexaphosphate, tris tri-(N-cyclohexyl-2-amino-ethyl)-ammonium salt]
P50 mmHg EFF:WB (whole blood [1]; effector 82 mOsM, EFF:WB 1:0.375, pH 7.2-7.3, control 41.5): 75.0 mmHg
P50 mmHg EFF:WB (whole blood [1]; effector 321 mOsM, EFF:WB 1:1.5, pH 7.2-7.3, control 40.5): 39.5 mmHg
P50 mmHg EFF (free hemoglobin) (Free Hemoglobin; [4]): 41.0 mmHg

Molecule: C1CCCC(NCCN(CCNC2CCCCCC2)CCNC2CCCCCC2)CC1.C1CCCC(NCCN(CCNC2CCCCCC2)CCNC2CCCCCC2)CC1.C1CCCC(NCCN(CCNC2CCCCCC2)CCNC2CCCCCC2)CC1.O=P(O)(O)O[C@H]1[C@H](OP(=O)(O)O)[C@@H](OP(=O)(O)O)[C@H](OP(=O)(O)O)[C@@H](OP(=O)(O)O)[C@H]1OP(=O)(O)O [SV137, Inositol hexaphosphate, tris tri-(N-cycloheptyl-2-amino-ethyl)-ammonium salt]
Kos ([2]; 1-octanol/human serum, concentration of 30 mM): 0.64
Kow [2, 5]: 2.70
P50 mmHg EFF:WB (whole blood [1]; effector 268 mOsM, EFF:WB 1:0.375, pH 7.2-7.3, control 29.5): 32.0 mmHg

Molecule: NC1CCCCC1.NC1CCCCC1.NC1CCCCC1.NC1CCCCC1.NC1CCCCC1.NC1CCCCC1.NC1CCCCC1.NC1CCCCC1.NC1CCCCC1.O=P([O-])([O-])OC1C(OP(=O)([O-])O)C(OP(=O)(O)O)C(OP(=O)(O)O)C(OP(=O)(O)O)C1OP(=O)(O)O.[Na+].[Na+].[Na+] (stereo not shown) [ICP6, nona cyclohexylammonium tri sodium inositol hexaphosphate]
P50 EFF:WB (whole blood [1]; EFF 30 mM, EFF:WB 22 mM, 220 mOsM, pH 7.23, ratio 1:0.375, control WB 27.5, 37 C.): 39 mmHg

Kow [2, 5]: < 10^−3
Molecule: NC1CCCC1.NC1CCCC1.NC1CCCC1.NC1CCCC1.NC1CCCC1.NC1CCCC1.NC1CCCC1.NC1CCCC1.NC1CCCC1.NC1CCCC1.NC1CCCC1.O=P(O)(O)OC1C(OP(=O)(O)O)C(OP(=O)(O)O)C(OP(=O)(O)O)C(OP(=O)(O)O)C1OP(=O)(O)O (stereo not shown) [SV78, Inositol hexaphosphate, undeca-cyclopentylammonium salt]

equivalents of cyclooctylammoniums required to reach a Kos value equal to 1 ([2]; constant IHP concentration 22 mM, human serum/octanol, IHP sodium salt in serum, ammonium hydrochloride in organic phase): 8 equivalents
Molecule: NC1CCCCCCC1 [cyclooctylammoniums]

Molecule: NC1CCCCC1.NC1CCCCC1.NC1CCCCC1.NC1CCCCC1.NC1CCCCC1.NC1CCCCC1.NC1CCCCC1.NC1CCCCC1.NC1CCCCC1.NC1CCCCC1.NC1CCCCC1.O=P(O)(O)OC1C(OP(=O)(O)O)C(OP(=O)(O)O)C(OP(=O)(O)O)C(OP(=O)(O)O)C1OP(=O)(O)O (stereo not shown) [SV81, Inositol hexaphosphate, undeca-cyclohexylammonium salt]
shift of the P50 value (compared to the control experiment) (whole blood [3]): 50%

P50 mmHg EFF (free hemoglobin) (Free Hemoglobin; [4]): 41.0 mmHg
Molecule: Inositol hexaphosphate, penta cyclohexyl-(1,3-bismethylammonium) salt [SV 94]

Molecule: NC1CCCCC1N.NC1CCCCC1N.NC1CCCCC1N.NC1CCCCC1N.NC1CCCCC1N.O=P(O)(O)O[C@H]1[C@H](OP(=O)(O)O)[C@@H](OP(=O)(O)O)[C@H](OP(=O)(O)O)[C@@H](OP(=O)(O)O)[C@H]1OP(=O)(O)O [SV 92, Inositol hexaphosphate, penta (±)-(trans)-1,2-cyclohexyldiammonium salt]
P50 mmHg EFF:WB (whole blood [1]; effector 84 mOsM, EFF:WB 1:0.375, pH 7.2-7.3, control 41.4): 58.5 mmHg
P50 mmHg EFF:WB (whole blood [1]; effector 336 mOsM, EFF:WB 1:1.5, pH 7.2-7.3, control 40.5): 38.7 mmHg
P50 mmHg EFF (free hemoglobin) (Free Hemoglobin; [4]): 45.0 mmHg

Molecule: O=C(O)C(COP(=O)(O)O)OP(=O)(O)O (stereo not shown) [2,3-Diphosphoglycerate]
half-saturation pressure P(O2) (½) of stripped hemoglobin (stripped hemoglobin; 25 C., stripped hemoglobin alone 4.3): 12.0 mm Hg
half-saturation pressure P(O2) (½) of stripped hemoglobin (stripped hemoglobin; 37 C., stripped hemoglobin alone 9.3): 23.7 mm Hg

Molecule: C1CCCC(NCCCN2CCN(CCCNC3CCCCCCC3)CC2)CCC1.C1CCCC(NCCCN2CCN(CCCNC3CCCCCCC3)CC2)CCC1.C1CCCC(NCCCN2CCN(CCCNC3CCCCCCC3)CC2)CCC1.O=P(O)(O)O[C@H]1[C@H](OP(=O)(O)O)[C@@H](OP(=O)(O)O)[C@H](OP(=O)(O)O)[C@@H](OP(=O)(O)O)[C@H]1OP(=O)(O)O [SV141, Inositol hexaphosphate, tri N,N′-di-(3-(N-cyclooctyl-amino)-propyl)-piperazinium salt]
P50 mmHg EFF:WB (whole blood [1]; effector 221 mOsM, EFF:WB 1:1.5, pH 7.1-7.2, control 25): 25.0 mmHg
P50 mmHg EFF (free hemoglobin) (Free Hemoglobin; ratio 1:1 (2.5 mM:2.5 mM), pH 7.1-7.2, control P50 10.5 mmHg): 22.0 mmHg
lysis of whole blood incubated with effector (red blood cells; WB, EFF:WB 1:0.375, no sufficient RBC pellet): Lyses

P50 mmHg EFF (free hemoglobin) (Free Hemoglobin; [4]): 41.7 mmHg
Molecule: Inositol hexaphosphate, octa menthyl-1,8-diammonium salt [SV 89]

Koas (artificial serum with albumin) ([2]; 1-octanol/artificial serum with albumin, at 18 mM): 0.041
Koa (artificial serum without albumin) ([2]; 1-octanol/artificial serum without albumin, at 18 mM): 0.088
Kos (human serum) ([2]; 1-octanol/human serum, at 18 mM): 0.031
Kow (water) ([2]; 1-octanol/water, at 18 mM): 0.411
Molecule: NC1CCCCCC1 [SV75, Inositol hexaphosphate, nona-cycloheptylammonium salt]

Molecule: C1CCC(N2CCCCC2)CC1.C1CCC(N2CCCCC2)CC1.C1CCC(N2CCCCC2)CC1.C1CCC(N2CCCCC2)CC1.C1CCC(N2CCCCC2)CC1.C1CCC(N2CCCCC2)CC1.C1CCC(N2CCCCC2)CC1.C1CCC(N2CCCCC2)CC1.C1CCC(N2CCCCC2)CC1.O=P(O)(O)O[C@H]1[C@H](OP(=O)(O)O)[C@@H](OP(=O)(O)O)[C@H](OP(=O)(O)O)[C@@H](OP(=O)(O)O)[C@H]1OP(=O)(O)O [SV 97, Inositol hexaphosphate, nona N-cyclohexyl-piperidinium salt]
P50 mmHg EFF:WB (whole blood [1]; effector 111 mOsM, EFF:WB 1:0.375, pH 7.2-7.3, control 41.5): 49.7 mmHg
P50 mmHg EFF:WB (whole blood [1]; effector 343 mOsM, EFF:WB 1:1.5, pH 7.2-7.3, control 40.5): 40.0 mmHg
P50 mmHg EFF (free hemoglobin) (Free Hemoglobin; [4]): 46.7 mmHg
